Measured values as given in US20090105305A1, “Therapeutic Agents - 550” (AstraZeneca AB, priority 2006, published 2009).

Molecular target: T1, human Fatty Acid Synthase (Homo sapiens, UniProt P49327)
T1 construct: made in house
Experiment: Human FAS enzyme assay (decrease in NADPH fluorescence)
Assay type: biochemical
Settings: for inhibition at 100 µM: % inhibition at a concentration of 100 micromolar; for IC50s in the range of about 0.001 μM to about 30 μM: compounds excluded from the claims by proviso; for IC50: unit inferred
Outline: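 In-house human FAS (0.4 μg) was preincubated 15 min at RT with compound and NADPH (added at 166.6 μM) in 0.1 M Tris pH 7.5, 1 mM glutathione, 0.05% BSA. Malonyl-/acetyl-CoA (500/150 μM in substrate mix) was then added for 60 min. Readout was NADPH fluorescence loss (ex 340/em 460) over a time-zero read, with IC50 from a sigmoid fit.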

T1 sequence (P49327 whole entry): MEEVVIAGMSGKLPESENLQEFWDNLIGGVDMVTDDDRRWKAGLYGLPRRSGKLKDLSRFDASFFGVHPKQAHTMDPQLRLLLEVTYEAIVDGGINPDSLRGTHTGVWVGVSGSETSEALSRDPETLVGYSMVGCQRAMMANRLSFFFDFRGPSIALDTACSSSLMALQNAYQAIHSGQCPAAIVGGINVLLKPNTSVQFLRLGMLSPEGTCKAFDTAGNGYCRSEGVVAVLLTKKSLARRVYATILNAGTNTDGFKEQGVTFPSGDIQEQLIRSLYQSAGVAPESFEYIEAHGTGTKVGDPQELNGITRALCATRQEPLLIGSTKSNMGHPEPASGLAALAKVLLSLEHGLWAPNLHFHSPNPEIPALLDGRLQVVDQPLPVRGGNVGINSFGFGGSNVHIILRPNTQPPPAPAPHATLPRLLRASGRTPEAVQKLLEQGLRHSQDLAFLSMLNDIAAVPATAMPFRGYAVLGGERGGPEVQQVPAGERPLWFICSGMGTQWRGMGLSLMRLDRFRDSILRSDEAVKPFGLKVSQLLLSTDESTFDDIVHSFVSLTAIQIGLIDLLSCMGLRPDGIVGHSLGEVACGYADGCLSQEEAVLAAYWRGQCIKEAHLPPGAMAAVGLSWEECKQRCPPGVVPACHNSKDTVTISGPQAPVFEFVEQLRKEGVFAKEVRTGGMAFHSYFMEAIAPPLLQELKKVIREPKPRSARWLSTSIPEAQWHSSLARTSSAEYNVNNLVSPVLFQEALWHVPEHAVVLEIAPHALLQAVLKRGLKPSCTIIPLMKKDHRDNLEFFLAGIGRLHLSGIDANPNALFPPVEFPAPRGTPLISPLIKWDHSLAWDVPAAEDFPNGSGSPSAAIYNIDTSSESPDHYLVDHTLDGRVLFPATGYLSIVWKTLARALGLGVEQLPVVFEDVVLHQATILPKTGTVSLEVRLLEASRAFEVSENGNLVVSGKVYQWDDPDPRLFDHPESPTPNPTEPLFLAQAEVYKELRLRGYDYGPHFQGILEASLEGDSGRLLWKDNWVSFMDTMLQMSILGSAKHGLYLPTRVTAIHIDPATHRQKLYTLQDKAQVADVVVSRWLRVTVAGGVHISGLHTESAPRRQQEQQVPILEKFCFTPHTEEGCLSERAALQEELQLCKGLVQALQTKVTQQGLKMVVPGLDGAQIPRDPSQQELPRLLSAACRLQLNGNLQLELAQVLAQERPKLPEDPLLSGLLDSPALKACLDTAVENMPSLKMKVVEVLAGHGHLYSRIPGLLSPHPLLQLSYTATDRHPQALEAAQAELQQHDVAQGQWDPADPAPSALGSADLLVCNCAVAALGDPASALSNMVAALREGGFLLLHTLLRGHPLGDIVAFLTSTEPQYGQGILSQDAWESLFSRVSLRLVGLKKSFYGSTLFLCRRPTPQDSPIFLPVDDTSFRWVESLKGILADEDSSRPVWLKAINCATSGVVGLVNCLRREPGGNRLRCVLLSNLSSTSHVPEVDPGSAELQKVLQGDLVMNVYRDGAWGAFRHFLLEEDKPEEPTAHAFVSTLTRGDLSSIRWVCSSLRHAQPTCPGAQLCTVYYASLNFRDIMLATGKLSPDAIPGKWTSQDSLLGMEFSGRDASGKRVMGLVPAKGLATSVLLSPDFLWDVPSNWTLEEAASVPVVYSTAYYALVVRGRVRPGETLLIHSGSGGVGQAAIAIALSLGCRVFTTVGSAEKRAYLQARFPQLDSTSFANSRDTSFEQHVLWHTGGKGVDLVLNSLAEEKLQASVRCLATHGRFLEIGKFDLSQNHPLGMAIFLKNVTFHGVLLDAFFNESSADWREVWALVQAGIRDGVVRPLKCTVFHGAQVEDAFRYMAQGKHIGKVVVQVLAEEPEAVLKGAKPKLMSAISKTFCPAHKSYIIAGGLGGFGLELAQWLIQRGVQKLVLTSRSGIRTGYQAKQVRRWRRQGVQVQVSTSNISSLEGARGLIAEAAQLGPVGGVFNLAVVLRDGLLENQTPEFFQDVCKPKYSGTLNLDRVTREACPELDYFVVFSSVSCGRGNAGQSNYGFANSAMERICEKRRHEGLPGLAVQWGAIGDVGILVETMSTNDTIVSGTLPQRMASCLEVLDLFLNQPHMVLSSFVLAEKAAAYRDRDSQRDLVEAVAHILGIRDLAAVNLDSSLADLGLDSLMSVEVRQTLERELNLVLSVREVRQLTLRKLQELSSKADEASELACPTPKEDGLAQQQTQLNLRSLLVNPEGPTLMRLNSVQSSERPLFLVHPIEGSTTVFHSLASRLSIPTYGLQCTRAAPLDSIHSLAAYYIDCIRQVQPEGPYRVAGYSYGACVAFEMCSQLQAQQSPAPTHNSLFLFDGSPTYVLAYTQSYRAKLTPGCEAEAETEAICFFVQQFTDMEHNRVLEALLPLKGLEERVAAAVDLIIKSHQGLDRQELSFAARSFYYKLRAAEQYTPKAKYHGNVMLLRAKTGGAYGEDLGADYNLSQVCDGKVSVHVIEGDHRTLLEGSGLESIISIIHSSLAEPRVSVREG

SMILES | inhibition at 100 µM [%] | further results
COCC(=O)NCCS(=O)(=O)Nc1cc(C(=O)N2CCC(c3ccc(C#N)cc3)CC2)ccc1C [Example 87, N-[2-[[5-[4-(4-cyanophenyl)piperidine-1-carbonyl]-2-methyl-phenyl]sulfamoyl]ethyl]-2-methoxy-acetamide] | 82 | 
Cc1ccc(C(=O)N2CCC(c3ccc(C#N)cc3)CC2)cc1NS(=O)(=O)c1cccc(C(N)=O)c1 [Example 81, 3-[[5-[4-(4-cyanophenyl)piperidine-1-carbonyl]-2-methyl-phenyl]sulfamoyl]benzamide] | 90 | 
Cc1ccc(C(=O)N2CCC(c3ccccc3C#N)CC2)cc1NS(C)(=O)=O [N-[5-[4-(2-cyanophenyl)piperidine-1-carbonyl]-2-methylphenyl]methanesulfonamide] |  | IC50s in the range of about 0.001 μM to about 30 μM: do not have IC50s in the range of about 0.001 μM to about 30 μM
CCCCOc1ccc(S(=O)(=O)Nc2cc(C(=O)N3CCC(c4ccc(C#N)cc4)CC3)ccc2C)cc1 [Example 24, 4-butoxy-N-[5-[4-(4-cyanophenyl)piperidine-1-carbonyl]-2-methyl-phenyl]benzenesulfonamide] | 83 | 
Cc1ccc(C(=O)N2CCC(c3ccc(C#CC(C)(C)O)cc3)CC2)cc1NS(C)(=O)=O [Example 252, N-[5-[4-[4-(3-hydroxy-3-methylbut-1-ynyl)phenyl]piperidine-1-carbonyl]-2-methylphenyl]methanesulfonamide] |  | IC50: 3330 nM
Cc1ccc(C2CCN(C(=O)c3ccc(C)c(NS(C)(=O)=O)c3)CC2)cc1 [Example 158, N-[2-methyl-5-[4-(4-methylphenyl)piperidine-1-carbonyl]phenyl]methanesulfonamide] | 81 | 
Cc1ccc(C(=O)N2CCC(c3ccc(-c4ccccn4)cc3)CC2)cc1NS(C)(=O)=O [Example 173, N-[2-methyl-5-[4-(4-pyridin-2-ylphenyl)piperidine-1-carbonyl]phenyl]methanesulfonamide] | 64 | 
CNC(=O)CCc1ccc(C2CCN(C(=O)c3ccc(C)c(NS(C)(=O)=O)c3)CC2)cc1 [Example 248, 3-[4-[1-(3-methanesulfonamido-4-methylbenzoyl)piperidin-4-yl]phenyl]-N-methylpropanamide] |  | IC50: 405 nM
Cc1ccc(C(=O)N2CCC(c3ccc(C#N)cc3)CC2)cc1NS(=O)(=O)c1cccc(C(=O)NC(C)C)c1 [Example 85, 3-[[5-[4-(4-cyanophenyl)piperidine-1-carbonyl]-2-methyl-phenyl]sulfamoyl]-N-propan-2-yl-benzamide] | 95 | 
CS(=O)(=O)c1ccc(C(=O)N2CCC(c3ccc(C#N)cc3)CC2)cc1NS(=O)(=O)Cc1ccccc1 [Example 135, N-[5-[4-(4-cyanophenyl)piperidine-1-carbonyl]-2-methylsulfonyl-phenyl]-1-phenyl-methanesulfonamide] | 100 | 
Cc1ccc(C(=O)N2CCC(c3ccc(C#N)cc3)CC2)cc1NS(=O)(=O)CC(C)C [Example 64, N-[5-[4-(4-cyanophenyl)piperidine-1-carbonyl]-2-methyl-phenyl]-2-methyl-propane-1-sulfonamide] | 83 | 
Cc1ccc(C(=O)N2CCC(c3ccc(C(=O)N(C)C)cc3)CC2)cc1NS(C)(=O)=O [4-[1-(3-methanesulfonamido-4-methylbenzoyl)piperidin-4-yl]-N,N-dimethylbenzamide] |  | IC50s in the range of about 0.001 μM to about 30 μM: do not have IC50s in the range of about 0.001 μM to about 30 μM
Cc1ccc(C(=O)N2CCC(O)(c3cccc(C(F)(F)F)c3)CC2)cc1NS(C)(=O)=O [N-[5-[4-hydroxy-4-[3-(trifluoromethyl)phenyl]piperidine-1-carbonyl]-2-methylphenyl]methanesulfonamide] |  | IC50s in the range of about 0.001 μM to about 30 μM: do not have IC50s in the range of about 0.001 μM to about 30 μM
Cc1ccc(C(=O)N2CCC(c3ccc(-c4nnco4)cc3)CC2)cc1NS(C)(=O)=O [Example 168, N-[2-methyl-5-[4-[4-(1,3,4-oxadiazol-2-yl)phenyl]piperidine-1-carbonyl]phenyl]methanesulfonamide] | 75 | 
Cc1ccc(C(=O)N2CCC(c3ccc(C#N)cc3)CC2)cc1NS(=O)(=O)CCCCl [Example 9, 3-chloro-N-[5-[4-(4-cyanophenyl)piperidine-1-carbonyl]-2-methyl-phenyl]propane-1-sulfonamide] | 95 | 
Cc1ccc(C(=O)N2CCC(c3ccc(C#N)cc3)CC2)cc1NS(=O)(=O)C1CCN(C)CC1 [Example 125, N-[5-[4-(4-cyanophenyl)piperidine-1-carbonyl]-2-methyl-phenyl]-1-methyl-piperidine-4-sulfonamide] | 98 | 
Cc1ccc(C(=O)N2CCC(c3ccc(Cl)cc3)CC2)cc1NS(C)(=O)=O [Example 155, N-[5-[4-(4-chlorophenyl)piperidine-1-carbonyl]-2-methyl-phenyl]methanesulfonamide] | 84 | 

SMILES | inhibition at 100 µM [%] | further results
Cc1ccc(C(=O)N2CCC(c3ccc(C(=O)c4nccs4)cc3)CC2)cc1NS(C)(=O)=O [Example 188, N-[2-methyl-5-[4-[4-(1,3-thiazole-2-carbonyl)phenyl]piperidine-1-carbonyl]phenyl]methanesulfonamide] | 110 | 
Cc1ccc(C(=O)N2CCC(c3ccc(C#N)cc3)CC2)cc1NS(=O)(=O)c1cn(C)nc1C [Example 139, N-[5-[4-(4-cyanophenyl)piperidine-1-carbonyl]-2-methyl-phenyl]-1,3-dimethyl-pyrazole-4-sulfonamide] | 83 | 
CC(=O)NCCS(=O)(=O)Nc1cc(C(=O)N2CCC(c3ccc(C#N)cc3)CC2)ccc1C [Example 78, N-[2-[[5-[4-(4-cyanophenyl)piperidine-1-carbonyl]-2-methyl-phenyl]sulfamoyl]ethyl]acetamide] | 95 | 
COC(=O)c1cccc(S(=O)(=O)Nc2cc(C(=O)N3CCC(c4ccc(C#N)cc4)CC3)ccc2C)c1 [Example 76, Methyl 3-[[5-[4-(4-cyanophenyl)piperidine-1-carbonyl]-2-methyl-phenyl]sulfamoyl]benzoate] | 97 | 
Cc1ccc(C(=O)N2CCC(c3ccc(C#N)cc3)CC2)cc1NS(=O)(=O)CC(=O)NCCO [Example 92, 2-[[5-[4-(4-cyanophenyl)piperidine-1-carbonyl]-2-methyl-phenyl]sulfamoyl]-N-(2-hydroxyethyl)acetamide] | 80 | 
COc1ccc(C(=O)N2CCC(c3ccc(C#N)cc3)CC2)cc1NS(=O)(=O)Cc1ccccc1 [Example 89, N-[5-[4-(4-cyanophenyl)piperidine-1-carbonyl]-2-methoxy-phenyl]-1-phenyl-methanesulfonamide] | 78 | 
Cc1ccc(C(=O)N2CCC(c3ccc(C#N)cc3)CC2)cc1NS(=O)(=O)C1CCCCC1 [Example 17, N-[5-[4-(4-cyanophenyl)piperidine-1-carbonyl]-2-methyl-phenyl]cyclohexanesulfonamide] | 94 | 
Cc1ccc(C(=O)N2CCC(c3ccc(C(=O)NC4CC4)cc3)CC2)cc1NS(C)(=O)=O [Example 184, N-cyclopropyl-4-[1-(3-methanesulfonamido-4-methylbenzoyl)piperidin-4-yl]benzamide] | 84 | 
CNCCCS(=O)(=O)Nc1cc(C(=O)N2CCC(c3ccc(C#N)cc3)CC2)ccc1C [Example 75, N-[5-[4-(4-cyanophenyl)piperidine-1-carbonyl]-2-methyl-phenyl]-3-methylamino-propane-1-sulfonamide] | 93 | 
Cc1ccc(C(=O)N2CCC(c3ccc(C#N)cc3)CC2)cc1NS(=O)(=O)CCc1ccccc1 [Example 202, N-[5-[4-(4-cyanophenyl)piperidine-1-carbonyl]-2-methylphenyl]-2-phenylethanesulfonamide] | 90 | 
COc1ccc(C(=O)N2CCC(c3ccc(C#N)cc3)CC2)cc1NS(C)(=O)=O [Example 6, N-[5-[4-(4-cyanophenyl)piperidine-1-carbonyl]-2-methoxy-phenyl]methanesulfonamide] | 75 | 
CC(=O)Nc1ccc(S(=O)(=O)Nc2ccc(C)c(C(=O)N3CCC(c4ccc(C#N)cc4)CC3)c2)cc1 [Example 48, N-[4-[[3-[4-(4-cyanophenyl)piperidine-1-carbonyl]-4-methyl-phenyl]sulfamoyl]phenyl]acetamide] | 84 | 
Cc1ccc(NS(=O)(=O)Cc2ccccc2F)cc1C(=O)N1CCC(c2ccc(C#N)cc2)CC1 [Example 51, N-[3-[4-(4-cyanophenyl)piperidine-1-carbonyl]-4-methyl-phenyl]-1-(2-fluorophenyl)methanesulfonamide] | 94 | 
Cc1ccc(C(=O)N2CCC(c3ccc(C#N)cc3)CC2)cc1NS(=O)(=O)c1ccccc1C#N [Example 20, 2-cyano-N-[5-[4-(4-cyanophenyl)piperidine-1-carbonyl]-2-methyl-phenyl]benzenesulfonamide] | 85 | 
Cc1ccc(C(=O)N2CCC(c3ccc(C#CC(C)(C)N)cc3)CC2)cc1NS(C)(=O)=O [N-[5-[4-[4-(3-amino-3-methylbut-1-ynyl)phenyl]piperidine-1-carbonyl]-2-methylphenyl]methanesulfonamide] |  | IC50s in the range of about 0.001 μM to about 30 μM: do not have IC50s in the range of about 0.001 μM to about 30 μM
COc1cc(C2CCN(C(=O)c3ccc(C)c(NS(C)(=O)=O)c3)CC2)ccc1C#N [Example 178, N-[5-[4-(4-cyano-3-methoxyphenyl)piperidine-1-carbonyl]-2-methylphenyl]methanesulfonamide] | 81 | 
Cc1ccc(C(=O)N2CCC(c3ccc(C#N)cc3)CC2)cc1NS(=O)(=O)C1CCN(S(=O)(=O)C(C)C)CC1 [Example 119, N-[5-[4-(4-cyanophenyl)piperidine-1-carbonyl]-2-methyl-phenyl]-1-propan-2-ylsulfonyl-piperidine-4-sulfonamide] | 94 | 
